Test results taken from ChEMBL document CHEMBL1133593 (J Med Chem, 2000).

Target: Phosphoglycerate kinase (Trypanosoma brucei)
Test: evaluated for the inhibition of Trypanosoma brucei Phosphoglycerate kinase (PGK)

SMILES	IC50 [µM]
CCCNc1nc(N)c2ncn([C@@H]3O[C@H](CO)[C@@H](O)[C@H]3O)c2n1	1500
Nc1nc(NCC(O)c2ccccc2)nc2c1ncn2[C@@H]1O[C@H](CO)[C@@H](O)[C@H]1O (stereo partly specified)	1400
Nc1nc(NCc2ccccc2)nc2c1ncn2C1O[C@H](CO)[C@@H](O)[C@H]1O (stereo partly specified)	3500
NCCNc1ncnc2c1ncn2C1O[C@H](CO)[C@@H](O)[C@H]1O (stereo partly specified)	2500
OC[C@H]1OC(n2cnc3c(NCCc4ccccc4)nc(NCCc4ccccc4)nc32)[C@H](O)[C@@H]1O (stereo partly specified)	30
Nc1nc(NCCCCNc2nc(N)nc3c2ncn3C2O[C@H](CO)[C@@H](O)[C@H]2O)c2ncn(C3O[C@@H](CO)[C@H](O)[C@@H]3O)c2n1 (stereo partly specified)	750
Nc1nc(NCCCNc2nc(N)nc3c2ncn3C2O[C@H](CO)[C@@H](O)[C@H]2O)c2ncn(C3O[C@@H](CO)[C@H](O)[C@@H]3O)c2n1 (stereo partly specified)	50
COc1ccc(CCNc2nc(N)nc3c2ncn3C2O[C@H](CO)[C@@H](O)[C@H]2O)cc1 (stereo partly specified)	1500
Nc1nc(NCCc2ccc(Cl)cc2)c2ncn(C3O[C@H](CO)[C@@H](O)[C@H]3O)c2n1 (stereo partly specified)	1400
Nc1nc(NCCNc2nc(N)nc3c2ncn3C2O[C@H](CO)[C@@H](O)[C@H]2O)c2ncn(C3O[C@@H](CO)[C@H](O)[C@@H]3O)c2n1 (stereo partly specified)	500
C#CCNc1nc(N)nc2c1ncn2C1O[C@H](CO)[C@@H](O)[C@H]1O (stereo partly specified)	1500
CCCCCNc1nc(N)nc2c1ncn2C1O[C@H](CO)[C@@H](O)[C@H]1O (stereo partly specified)	2000
Nc1nc(NCCc2cccc(Cl)c2)c2ncn(C3O[C@H](CO)[C@@H](O)[C@H]3O)c2n1 (stereo partly specified)	1200
OC[C@H]1OC(n2cnc3c(NCCc4ccc(O)cc4)nc(NCCc4ccccc4)nc32)[C@H](O)[C@@H]1O (stereo partly specified)	100
CC(CNc1nc(N)nc2c1ncn2C1O[C@H](CO)[C@@H](O)[C@H]1O)c1ccccc1 (stereo partly specified)	2900
Nc1ccc(CCNc2nc(N)nc3c2ncn3C2O[C@H](CO)[C@@H](O)[C@H]2O)cc1 (stereo partly specified)	250
Cc1cccc(CNc2nc(N)nc3c2ncn3C2O[C@H](CO)[C@@H](O)[C@H]2O)c1 (stereo partly specified)	400
Cc1ccccc1CNc1nc(N)c2ncn(C3O[C@H](CO)[C@@H](O)[C@H]3O)c2n1 (stereo partly specified)	1500

SMILES	IC50 [µM]
Nc1nc(NCCc2ccccc2Cl)c2ncn(C3O[C@H](CO)[C@@H](O)[C@H]3O)c2n1 (stereo partly specified)	1900
Nc1nc(NCc2cccc(Cl)c2)nc2c1ncn2C1O[C@H](CO)[C@@H](O)[C@H]1O (stereo partly specified)	800
Nc1nc(NCCc2ccc(O)cc2)nc2c1ncn2C1O[C@H](CO)[C@@H](O)[C@H]1O (stereo partly specified)	500
Cc1cccc(CNc2nc(N)c3ncn(C4O[C@H](CO)[C@@H](O)[C@H]4O)c3n2)c1 (stereo partly specified)	1500
Nc1nc(NC2CCCCCC2)c2ncn(C3O[C@H](CO)[C@@H](O)[C@H]3O)c2n1 (stereo partly specified)	2500
Nc1nc(NCc2cccc3ccccc23)c2ncn(C3O[C@H](CO)[C@@H](O)[C@H]3O)c2n1 (stereo partly specified)	1900
CCCCNc1nc(N)nc2c1ncn2C1O[C@H](CO)[C@@H](O)[C@H]1O (stereo partly specified)	900
Nc1nc(NCc2ccccc2)c2ncn(C3O[C@H](CO)[C@@H](O)[C@H]3O)c2n1 (stereo partly specified)	600
Nc1nc(NCCc2ccc(Cl)cc2Cl)nc2c1ncn2C1O[C@H](CO)[C@@H](O)[C@H]1O (stereo partly specified)	600
Nc1nc(NCCc2ccccc2Cl)nc2c1ncn2C1O[C@H](CO)[C@@H](O)[C@H]1O (stereo partly specified)	2200
CCCCNc1nc(N)c2ncn(C3O[C@H](CO)[C@@H](O)[C@H]3O)c2n1 (stereo partly specified)	1500
Cc1ccc(CCNc2nc(N)nc3c2ncn3C2O[C@H](CO)[C@@H](O)[C@H]2O)cc1 (stereo partly specified)	2000
COc1ccc(CNc2nc(N)c3ncn(C4O[C@H](CO)[C@@H](O)[C@H]4O)c3n2)cc1 (stereo partly specified)	1000
CC(CNc1nc(N)c2ncn(C3O[C@H](CO)[C@@H](O)[C@H]3O)c2n1)c1ccccc1 (stereo partly specified)	3500
Nc1nc(NCCCc2ccccc2)c2ncn(C3O[C@H](CO)[C@@H](O)[C@H]3O)c2n1 (stereo partly specified)	4000
Nc1ccc(CCNc2nc(N)c3ncn(C4O[C@H](CO)[C@@H](O)[C@H]4O)c3n2)cc1 (stereo partly specified)	500
COc1ccccc1CNc1nc(N)c2ncn(C3O[C@H](CO)[C@@H](O)[C@H]3O)c2n1 (stereo partly specified)	1400
Nc1nc(NCCc2ccc(O)cc2)c2ncn(C3O[C@H](CO)[C@@H](O)[C@H]3O)c2n1 (stereo partly specified)	130

Second part, the molecule after the results:

IC50 [µM]	SMILES
3000	CCCCCNc1ncnc2c1ncn2[C@@H]1O[C@H](CO)[C@@H](O)[C@H]1O
1500	Nc1nc(NC2CCCC2)c2ncn(C3O[C@H](CO)[C@@H](O)[C@H]3O)c2n1 (stereo partly specified)
100	OC[C@H]1OC(n2cnc3c(NCCc4ccccc4)nc(NCCc4ccc(O)cc4)nc32)[C@H](O)[C@@H]1O (stereo partly specified)
250	Nc1nc(NCCc2cccc(O)c2)c2ncn(C3O[C@H](CO)[C@@H](O)[C@H]3O)c2n1 (stereo partly specified)
1500	Cc1ccc(CNc2nc(N)c3ncn(C4O[C@H](CO)[C@@H](O)[C@H]4O)c3n2)cc1 (stereo partly specified)
1900	COc1cccc(CCNc2nc(N)nc3c2ncn3C2O[C@H](CO)[C@@H](O)[C@H]2O)c1 (stereo partly specified)
3500	CCNc1nc(N)nc2c1ncn2C1O[C@H](CO)[C@@H](O)[C@H]1O (stereo partly specified)
3000	C=CCNc1nc(N)nc2c1ncn2C1O[C@H](CO)[C@@H](O)[C@H]1O (stereo partly specified)
2000	Nc1nc(NCc2ccccc2Cl)nc2c1ncn2C1O[C@H](CO)[C@@H](O)[C@H]1O (stereo partly specified)
2900	CC(Nc1nc(N)nc2c1ncn2C1O[C@H](CO)[C@@H](O)[C@H]1O)c1ccccc1 (stereo partly specified)
250	Nc1nc(NCCc2ccc(O)c(O)c2)c2ncn(C3O[C@H](CO)[C@@H](O)[C@H]3O)c2n1 (stereo partly specified)
200	Nc1nc(NCCc2ccccc2)c2ncn(C3O[C@H](CO)[C@@H](O)[C@H]3O)c2n1 (stereo partly specified)
1400	Nc1nc(NCc2ccc(Cl)cc2)nc2c1ncn2C1O[C@H](CO)[C@@H](O)[C@H]1O (stereo partly specified)
4000	NCCCNc1nc(N)nc2c1ncn2C1O[C@H](CO)[C@@H](O)[C@H]1O (stereo partly specified)
1500	Nc1nc(NCc2ccco2)c2ncn(C3O[C@H](CO)[C@@H](O)[C@H]3O)c2n1 (stereo partly specified)
1200	Nc1nc(NCc2ccco2)nc2c1ncn2C1O[C@H](CO)[C@@H](O)[C@H]1O (stereo partly specified)
1800	COc1ccccc1CCNc1nc(N)nc2c1ncn2C1O[C@H](CO)[C@@H](O)[C@H]1O (stereo partly specified)
1000	Nc1nc(NCCCCCNc2nc(N)nc3c2ncn3C2O[C@H](CO)[C@@H](O)[C@H]2O)c2ncn(C3O[C@@H](CO)[C@H](O)[C@@H]3O)c2n1 (stereo partly specified)
2500	Nc1nc(NCC2CCCCC2)c2ncn(C3O[C@H](CO)[C@@H](O)[C@H]3O)c2n1 (stereo partly specified)
3000	Nc1nc(NC2CCCCCC2)nc2c1ncn2C1O[C@H](CO)[C@@H](O)[C@H]1O (stereo partly specified)
3000	CCCNc1nc(N)nc2c1ncn2C1O[C@H](CO)[C@@H](O)[C@H]1O (stereo partly specified)
800	Nc1nc(NCC2CCCO2)nc2c1ncn2C1O[C@H](CO)[C@@H](O)[C@H]1O (stereo partly specified)
850	COc1ccc(CCNc2nc(N)nc3c2ncn3C2O[C@H](CO)[C@@H](O)[C@H]2O)cc1O (stereo partly specified)
1500	COc1cc(CCNc2nc(N)nc3c2ncn3C2O[C@H](CO)[C@@H](O)[C@H]2O)ccc1O (stereo partly specified)
1800	Nc1nc(NCCCc2ccccc2)nc2c1ncn2C1O[C@H](CO)[C@@H](O)[C@H]1O (stereo partly specified)
